Data: paper PMC6369428, “Efflux Inhibitor Bicalutamide Increases Oral Bioavailability of the Poorly Soluble Efflux Substrate Docetaxel in Co-Amorphous Anti-Cancer Combination Therapy” (Molecules, 2019)
In brackets after ≈: the same amount, converted by molar mass. Read-outs that look alike come from different tables or passages of the source.

Tests used:
[1] = Physical stability on storage, analysed by XRPD; type: physicochemical; conditions: 1.5 years at 4 °C under dry conditions
Procedure: XRPD was performed using an X’Pert PANalytical PRO X-ray diffractometer (PANalytical, Almelo, The Netherlands) using Cu Kα radiation (λ = 1.54 Å), and an acceleration voltage and current of 45 kV and 40 mA, respectively. The powder samples were scanned in reflectance mode from 5° to 35° 2ϴ with a scan speed of 0.067° 2ϴ and a step size of 0.026° 2ϴ. Data were collected and analyzed using the software X’Pert Data Collector (PANalytical, Almelo, The Netherlands).
The co-amorphous binary DTX-BIC mixture as well as the pure individual amorphous drugs were stored in a desiccator under dry conditions (silica gel) at 4 °C and analysed by XRPD after 1.5 years of storage.

[2] = Dissolution studies in FaSSIF biorelevant medium; type: physicochemical; conditions: 37 °C
Procedure: The concentrations of DTX and BIC were determined using a reversed-phase high-performance liquid chromatography (HPLC) system (Dionex Corporation, CA, USA) equipped with an ASI-100 autosampler, Dionex Ultimate 300 UV-Visible detector and pump. Chromatographic separation was achieved using a XB-C18 Phenomenex Kinetex column of 2.6 μm (2.1 × 50 mm) (Torrance, CA, USA) at 30 °C. The mobile-phase consisted of a mixture of A) 95% water 5% acetonitrile (ACN) and 0.1% trifluoroacetic acid (TFA) and B) 95% ACN 5% water 0.1% TFA, and was used at a flow rate of 0.5 mL/min in isocratic mode (60% A 40% B). Peaks were analysed at 270 nm for BIC and 230 nm for DTX. Linear calibration curves in the range of 0.25–5 μg/mL for both BIC and DTX were obtained in acetonitrile. Elution times were 4.8 min for BIC and 6.4 min for DTX.
For the dissolution studies, powder formulations were initially suspended in PBS in order to avoid powder agglomerates. Immediately after suspension, 100 µL aliquots were added to each well of a 12-well plate containing 2.9 mL dissolution medium/well. The concentrations of the drugs in the dissolution medium were 3 times higher than their respective saturation solubilities. […] The obtained samples were centrifuged at 10,000 g for 10 min and the supernatant was then analysed by HPLC (see above). […]

[3] = In vivo pharmacokinetics study in fasted rats; parameters: species or system Sprague Dawley rats; conditions: for DTX AUC / BIC AUC: mean ± SEM
Procedure: Healthy female and male Sprague Dawley rats of 7 weeks age weighing 140–240 g (Charles River, Denmark), were used for the experiments. The rats were housed with free access to water and food in groups of two rats per cage under controlled environmental conditions (constant temperature and humidity with a 12 h day-night cycle). All animal experimental work was carried out under the protocol approved by the Danish Animal Experiments Inspectorate (approval no. 2014-15-0201-00031), and all the procedures used were refined to provide maximal comfort and minimal stress to the animals.
All animals were fasted for approximately 12 h prior to administration of the drug formulations and food was provided to rats approximately 6 h after drug administration, although free access to water was allowed during fasting. The nine groups studied, each consisting of 6–8 rats, were assigned randomly and included two groups receiving an intravenous bolus injection of either DTX or BIC corresponding to 1 mg/rat (4–7 mg/kg) dissolved in saline: DMSO (50:50 v/v) with 1% Tween 80, administered in the tail vein. The remaining seven groups were orally administered with DTX or BIC or a combination of these at a fixed dose of 30 mg/kg for DTX and 16 mg/kg for BIC. For DTX, four groups of animals were studied, one group administered with crystalline DTX (crystalline), one group administered with a physical mixture of crystalline DTX and BIC (physical mix), one group administered with amorphous DTX (amorphous) and one group administered with the co-amorphous mixture of DTX and BIC (co-amorphous). For BIC three groups of animals were studied, one group administered with crystalline BIC (crystalline), one groups administered with a physical mixture of crystalline DTX and BIC (physical mix) and one group administered with the co-amorphous mixture of DTX and BIC (co-amorphous). Drug powders were suspended in 0.5 mL PBS and the suspension was immediately administered to the rats using a flexible cannula. Blood samples (150–200 µL) were collected in EDTA coated tubes from puncturing of the tail vein at 0.5, 1, 2, 4, 6 and 24 h after drug administration. The rats were euthanized by cervical dislocation after collection of the final blood sample. Plasma samples were obtained by centrifugation of blood samples at 3600 g (10 min, 4 °C) and transferred into microtubes. The plasma samples were stored at −80 °C until used for further analysis.
The bioanalysis of DTX and BIC in rat plasma was carried out using HPLC coupled with mass spectrometric (MS) detection. Prior to analysis liquid-liquid extraction was performed on the plasma samples (50 μL) by adding 100 μL of ethyl acetate and subsequently vortexing the vial for protein precipitation. The vials were centrifuged and 100 μL supernatant was carefully transferred to HPLC vials with inserts and evaporated using compressed air. The dried content of the vial was reconstituted using 150 μL ACN:H2O (1:1 v/v) and measured by LC-MS/MS.
LC-MS/MS analysis was performed using a 1290 Agilent Infinity Series system (Agilent Technologies, Palo Alto, CA, USA) coupled to an AB Sciex 4500 QTrap MS (Applied Biosystems, Foster City, CA, USA). A HPLC-MS method was developed for each compound. In both cases chromatographic separation was performed using a Phenomenex Kinetex (Torrance, CA, USA) C18 (50 × 2.1 mm, 2.6 μm) column with a Phenomenex C18 SecurityGuard™ Ultra (2.1 mm, 2 µm) guard column and the mobile phases consisted of (A) MilliQ water with 0.1% formic acid and (B) ACN with 0.1% formic acid. The column and autosampler tray were set at 40 °C and 6 °C, respectively, and the flow rate was set at 0.25 mL/min. The injection volume was set at 1 μL and 5 μL for BIC and DTX, respectively. For BIC, the elution gradient started at 20% B at time 0 and increased to […] at time 3.0 min. Hereafter B was held at 99% until 4.3 min before re-equilibrating the column until 5.5 min. The retention time for BIC was 3.12 min. […]

[4] = Saturation solubility studies in FaSSIF; type: physicochemical; conditions: crystalline drugs, FaSSIF pH 6.5, after 72 h with excess drug powder
Procedure: DTX and BIC saturation solubility studies were conducted in FaSSIF. The biorelevant FaSSIF medium was prepared by adding 218 mg bovine bile extract, 58 mg phosphatidylcholine, 232 mg Tris maleate salt and 395 mg sodium chloride to 100 mL of ultra-purified water and stirring overnight at 37 °C. The medium pH was adjusted to 6.5 with 1 M NaOH before use. Approximately 100 mg of the drugs were mixed with 1.5 mL of the media in plastic tubes, and the suspensions were rotated at 20 rpm for 72 h. The solution was separated from undissolved drug by centrifugation, and aliquots from the saturated solution were filtered through 0.45 µm polyvinylidene difluoride (PVDF) filters. The solubility may potentially have been influenced by exposure to temperature since both, centrifugation and filtration, were conducted at room temperature.
The concentrations of DTX and BIC were determined using a reversed-phase high-performance liquid chromatography (HPLC) system (Dionex Corporation, CA, USA) equipped with an ASI-100 autosampler, Dionex Ultimate 300 UV-Visible detector and pump. Chromatographic separation was achieved using a XB-C18 Phenomenex Kinetex column of 2.6 μm (2.1 × 50 mm) (Torrance, CA, USA) at 30 °C. […] Peaks were analysed at 270 nm for BIC and 230 nm for DTX. […]

[5] = parameters: method as in Zhang et al. [20]; conditions: oral drug delivery strategy for DTX (cyclodextrin-based polymeric micelle), mice, ref Zhang et al. [20]; cited from earlier work
[6] = parameters: method as in Valicherla et al. [19]; conditions: oral drug delivery strategy for DTX (self-emulsifying drug delivery system), rats, ref Valicherla et al. [19]; cited from earlier work
[7] = DTX in plasma, oral suspension, 30 mg/kg DTX, 30 mg/kg
[8] = oral suspension, 30 mg/kg DTX, Fa = AUCoral/AUCIV × 100, mean ± SEM, 30 mg/kg
[9] = intravenous bolus, 1 mg/rat (4–7 mg/kg)

CC(O)(CS(=O)(=O)c1ccc(F)cc1)C(=O)Nc1ccc(C#N)c(C(F)(F)F)c1 (centres unmarked) [Amorphous BIC, bicalutamide]
physical stability (solid state by XRPD) after storage [1]: recrystallized
time after which the saturation solubility of BIC is reached ([2]; BIC in FaSSIF): 120 min

CC(=O)O[C@@]12CO[C@@H]1C[C@H](O)[C@@]1(C)C(=O)[C@H](O)C3=C(C)[C@@H](OC(=O)[C@H](O)[C@@H](NC(=O)OC(C)(C)C)c4ccccc4)C[C@@](O)([C@@H](OC(=O)c4ccccc4)[C@H]21)C3(C)C [Amorphous DTX, Docetaxel]
DTX Cmax [3, 7]: 19 ng/mL
DTX Tmax [3, 7]: 6 h
DTX AUC [3, 7]: 518 ± 113 ng/mL × 24h
DTX Fa (absolute oral bioavailability) [3, 8]: 0.56 ± 0.12%
physical stability (solid state by XRPD) after storage [1]: remained amorphous
DTX supersaturation behaviour ([2]; DTX in FaSSIF, up to 240 min): does not supersaturate

CC(O)(CS(=O)(=O)c1ccc(F)cc1)C(=O)Nc1ccc(C#N)c(C(F)(F)F)c1 (centres unmarked) [BIC, bicalutamide]
Cmax ([3]; both sexes, Sprague Dawley, rat, plasma, iv, 1 mg, intravenous bolus, 1 mg/rat (4–7 mg/kg), read-out: BIC Cmax): 11300 ng/mL
Tmax ([3]; both sexes, Sprague Dawley, rat, plasma, iv, 1 mg, intravenous bolus, 1 mg/rat (4–7 mg/kg), read-out: BIC Tmax): 0.5 h
BIC AUC [3, 9]: 317 µg/mL × 24h
solubility at 72 h [4]: 3.05 ± 0.9 µg/mL (≈ 7.09 µM)

CC(O)(CS(=O)(=O)c1ccc(F)cc1)C(=O)Nc1ccc(C#N)c(C(F)(F)F)c1 (centres unmarked) [Crystalline BIC, bicalutamide]
BIC AUC ([3]; BIC in plasma, oral suspension, 16 mg/kg BIC): 43.06 ± 4.79 µg/mL × 24h
Cmax ([3]; both sexes, Sprague Dawley, rat, plasma, po, 16 mg/kg, BIC in plasma, oral suspension, 16 mg/kg BIC, read-out: BIC Cmax): 1660 ng/mL
Tmax ([3]; both sexes, Sprague Dawley, rat, plasma, po, 16 mg/kg, BIC in plasma, oral suspension, 16 mg/kg BIC, read-out: BIC Tmax): 6 h
bioavailability ([3]; both sexes, Sprague Dawley, rat, plasma, po, 16 mg/kg, BIC, oral suspension, 16 mg/kg BIC, Fa = AUCoral/AUCIV × 100, mean ± SEM, read-out: BIC Fa (absolute oral bioavailability)): 14 ± 1%

CC(=O)O[C@@]12CO[C@@H]1C[C@H](O)[C@@]1(C)C(=O)[C@H](O)C3=C(C)[C@@H](OC(=O)[C@H](O)[C@@H](NC(=O)OC(C)(C)C)c4ccccc4)C[C@@](O)([C@@H](OC(=O)c4ccccc4)[C@H]21)C3(C)C [Crystalline DTX, Docetaxel]
DTX Tmax [3, 7]: 4 h
DTX Tmax ([3]; DTX in plasma, oral suspension, 30 mg/kg DTX, listed as crystalline DTX, 30 mg/kg): around 1 h
DTX AUC [3, 7]: 185 ± 29 ng/mL × 24h
DTX Fa (absolute oral bioavailability) [3, 8]: 0.20 ± 0.03%
Cmax ([3]; both sexes, Sprague Dawley, rat, plasma, po, 30 mg/kg, DTX in plasma, oral suspension, 30 mg/kg DTX, read-out: DTX Cmax): 15 ng/mL

CC(=O)O[C@@]12CO[C@@H]1C[C@H](O)[C@@]1(C)C(=O)[C@H](O)C3=C(C)[C@@H](OC(=O)[C@H](O)[C@@H](NC(=O)OC(C)(C)C)c4ccccc4)C[C@@](O)([C@@H](OC(=O)c4ccccc4)[C@H]21)C3(C)C [DTX, Docetaxel]
Cmax [5]: 292 ng/mL
relative bioavailability increase [5]: 4.6 fold
Tmax ([3]; both sexes, Sprague Dawley, plasma, intravenous bolus, 1 mg/rat (4–7 mg/kg), read-out: DTX Tmax): 0.5 h
Cmax ([3]; both sexes, Sprague Dawley, rat, plasma, iv, 1 mg, intravenous bolus, 1 mg/rat (4–7 mg/kg), read-out: DTX Cmax): 7210 ng/mL
DTX AUC [3, 9]: 93,196 ± 12,626 ng/mL × 24h
solubility at 72 h [4]: 7.5 ± 1.2 µg/mL (≈ 9.28 µM)
Cmax [6]: 125 ng/mL
relative bioavailability increase [6]: 3.2 fold
